# Assay results reported in patent US6469001B1, “IL-5 inhibiting 6-azauracil derivatives” (priority 1998, dated 2002).
# Tested on: IL-5 production in human blood
# Assay: in vitro inhibition of IL-5 production in human blood (whole blood stimulated with phytohemagglutinin, IL-5 by ELISA)
# Assay type: cell-based
# Settings: test dose 1×10^−6 M, phytohemagglutinin HA17 stimulation, 48 hours, read-out: % inh. (percentage inhibition of IL-5 production)
# Protocol: in vitro Inhibition of IL-5 Production in Human Blood
# Human Whole Blood Stimulation
# Peripheral blood from healthy male donors was drawn into heparinized syringes (12.5 U heparin/ml). Blood samples were three-fold diluted in RMPI 1640 medium (Life Technologies, Belgium) supplemented with 2 mM L-glutamine, 100 U/ml penicillin and […] streptomycin, and […] fractions were distributed in 24-well multidisc plates. Blood samples were preincubated (60 minutes at 37° C.) in a humidified 6% CO2-atmosphere with 100 ml of drug solvent (final concentration 0.02% dimethylsulfoxide in RPMI 1640) or with 100 ml of an appropriate dose of test compound before being stimulated by the addition of […] of phytohemagglutinin HA17 (Murex, UK) at a final concentration of […]. After 48 hours, cell-free supernatant fluids were collected by centrifugation and stored at −70° C. until tested for the presence of IL-5.
# IL-5 measurements were conducted as described in Van Wauwe et al. (1996, Inflamm Res, 45, 357-363) on page 358 using ELISA.
# Table 1 lists the percentage inhibition of IL-5 production (column “% inh”) at a test dose of 1×10^−6 M for the compounds of the present invention.
row,Structure (SMILES),inhibition at 1 µM [%]
1,Cc1sc(C2(c3ccc(S(C)(=O)=O)cc3)CCc3cc(-n4ncc(=O)[nH]c4=O)ccc32)nc1-c1ccccc1 (centres unmarked) [Compound 7],39
2,CS(=O)(=O)c1ccc(C2(C(N)=S)CCc3cc(-n4ncc(=O)[nH]c4=O)ccc32)cc1 (centres unmarked) [Compound 6],6
